Reference: patent US9815802B2, “Herbicidally active N-(1-methyltetrazol-5-yl)benzoic acid amides” (BAYER CROPSCIENCE AKTIENGESELLSCHAFT, priority 2014, dated 2017)

What was measured:
Type in all cases: in vivo
Setaria viridis [1] = experiment: Pre-emergence herbicidal action against SETVI
Text: (§1) Pre-Emergence Herbicidal Action Against Harmful Plants
(§2) Seeds of monocotyledonous and dicotyledonous weed plants and crop plants are laid out in wood-fiber pots in sandy loam and covered with soil. The compounds of the invention, formulated in the form of wettable powders (WP) or as emulsion concentrates (EC), are then applied to the surface of the covering soil in the form of an aqueous suspension or emulsion at a water application rate equating to 600 to 800 I/ha, with addition of 0.2% wetting agent. After the treatment, the pots are placed in a greenhouse and kept under good growth conditions for the trial plants. The damage to the test plants is scored visually after a test period of 3 weeks by comparison with untreated controls (herbicidal activity in percent (%): 100% activity=the plants have died, 0% activity=like control plants). For example, compounds no. 1-001, 1-002, 1-003, 1-004, 1-011, 1-012, 1-021, 1-022, 1-031, 1-032, 1-041, 1-042 and 1-044 at an application rate of 320 g/ha each have at least 80% efficacy against Echinocloa crusgalli, Abutilon theophrasti, Amaranthus retroflexus and Matricaria inodora.

Stellaria media [2] = experiment: Pre-emergence herbicidal action against STEME
Text: as §1, §2

Alopecurus myosuroides = experiment: Post-emergence herbicidal action against ALOMY
Method: (§3) Post-Emergence Herbicidal Action Against Harmful Plants Seeds of monocotyledonous and dicotyledonous weed and crop plants are laid out in sandy loam in wood-fiber pots, covered with soil and cultivated in a greenhouse under good growth conditions. 2 to 3 weeks after sowing, the test plants are treated at the one-leaf stage. The compounds of the invention, formulated in the form of wettable powders (WP) or as emulsion concentrates (EC), are then sprayed onto the green parts of the plants in the form of an aqueous suspension or emulsion at a water application rate equating to 600 to 800 I/ha, with addition of 0.2% wetting agent. After the test plants have been left to stand in the greenhouse under optimal growth conditions for about 3 weeks, the action of the preparations is assessed visually in comparison to untreated controls (herbicidal action in percent (%): 100% activity=the plants have died, 0% activity=like control plants).

Avena fatua [3] = experiment: Post-emergence herbicidal action against AVEFA
Method: as §3

Setaria viridis [4] = experiment: Post-emergence herbicidal action against SETVI; conditions: dosage 5 g/ha
Method: as §3

Stellaria media [5] = experiment: Post-emergence herbicidal action against STEME; conditions: dosage 5 g/ha
Method: as §3

Polygonum convolvulus [6] = experiment: Post-emergence herbicidal action against POLCO
Method: as §3

Pharbitis purpureum = experiment: Pre-emergence herbicidal action against PHBPU; conditions: dosage 320 g/ha
Text: as §1, §2

Avena fatua [7] = experiment: Pre-emergence herbicidal action against AVEFA; conditions: dosage 320 g/ha
Text: as §1, §2

Polygonum convolvulus [8] = experiment: Pre-emergence herbicidal action against POLCO; conditions: dosage 320 g/ha
Text: as §1, §2

COSc1c(C)ccc(C(=O)Nc2nnnn2C)c1I
Activity against SETVI (Setaria viridis [1]; dosage 320 g/ha): 30%
Activity against STEME (Stellaria media [2]; dosage 320 g/ha): 70%

COSc1c(C)ccc(C(=O)Nc2nnnn2C)c1OC
Activity against SETVI (Setaria viridis [1]; dosage 320 g/ha): 40%
Activity against STEME (Stellaria media [2]; dosage 320 g/ha): 60%

COSc1c(C=O)ccc(C(=O)Nc2nnnn2C)c1C
Activity against SETVI (Setaria viridis [1]; dosage 320 g/ha): 0%
Activity against STEME (Stellaria media [2]; dosage 320 g/ha): 0%

CCOSc1c(C)ccc(C(=O)Nc2nnnn2C)c1C
Activity against ALOMY (Alopecurus myosuroides; dosage 80 g/ha): 90%
Activity against AVEFA (Avena fatua [3]; dosage 80 g/ha): 100%

CCc1ccc(C(=O)Nc2nnnn2C)c(C)c1SOC
Activity against SETVI (Setaria viridis [4]): 100%
Activity against STEME (Stellaria media [5]): 100%

COSc1c(C(C)C)ccc(C(=O)Nc2nnnn2C)c1C
Activity against ALOMY (Alopecurus myosuroides; dosage 5 g/ha): 60%
Activity against AVEFA (Avena fatua [3]; dosage 5 g/ha): 40%

Cc1c(C(=O)Nc2nnnn2C)ccc(C(C)C)c1S(C)(=O)=O
Activity against ALOMY (Alopecurus myosuroides; Table S, dosage 5 g/ha): 60%
Activity against AVEFA (Avena fatua [3]; Table S, dosage 5 g/ha): 30%

Cc1c(C(=O)Nc2nnnn2C)ccc(I)c1S(C)(=O)=O
Activity against ALOMY (Alopecurus myosuroides; Table S, dosage 5 g/ha): 20%
Activity against AVEFA (Avena fatua [3]; Table S, dosage 5 g/ha): 0%

Cc1c(C(=O)Nc2nnnn2C)ccc(C(F)(F)F)c1S(C)(=O)=O
Activity against ALOMY (Alopecurus myosuroides; Table S, dosage 5 g/ha): 30%
Activity against AVEFA (Avena fatua [3]; Table S, dosage 5 g/ha): 0%

CCc1c(C(=O)Nc2nnnn2C)ccc(Cl)c1SOC
Activity against POLCO (Polygonum convolvulus [6]; Table V, dosage 5 g/ha): 20%

CCc1c(C(=O)Nc2nnnn2C)ccc(Br)c1S(C)(=O)=O
Activity against POLCO (Polygonum convolvulus [6]; Table W, dosage 20 g/ha): 40%

CCOSc1c(C(F)(F)F)ccc(C(=O)Nc2nnnn2C)c1CC
Activity against POLCO (Polygonum convolvulus [6]; Table X, dosage 20 g/ha): 20%

CCc1ccc(C(=O)Nc2nnnn2C)c(CC)c1S(=O)(=O)CC
Activity against POLCO (Polygonum convolvulus [6]; Table Y, dosage 20 g/ha): 100%

CCc1c(C(=O)Nc2nnnn2C)ccc(C(F)(F)F)c1S(=O)(=O)CC
Activity against POLCO (Polygonum convolvulus [6]; Table Y, dosage 20 g/ha): 80%

Cc1ccc(C(=O)Nc2nnnn2C)c(C)c1[S+](C)[O-] (centres unmarked) [1-001, 2,4-Dimethyl-3-(methylsulfinyl)-N-(1-methyl-1H-tetrazol-5-yl)benzamide]
Activity against SETVI (Setaria viridis [1]; dosage 320 g/ha): 100%
Activity against STEME (Stellaria media [2]; dosage 320 g/ha): 90%

CCS(=O)(=O)c1c(C)ccc(C(=O)Nc2nnnn2C)c1C [1-004]
Activity against PHBPU (Pharbitis purpureum): 80%
Activity against AVEFA (Avena fatua [7]): 90%

CCc1ccc(C(=O)Nc2nnnn2C)c(C)c1S(C)(=O)=O [1-012]
Activity against SETVI (Setaria viridis [1]; dosage 80 g/ha): 100%
Activity against STEME (Stellaria media [2]; dosage 80 g/ha): 90%

CCc1c(C(=O)Nc2nnnn2C)ccc(C)c1S(C)(=O)=O [1-032]
Activity against PHBPU (Pharbitis purpureum): 80%
Activity against AVEFA (Avena fatua [7]): 80%

CCc1ccc(C(=O)Nc2nnnn2C)c(CC)c1[S+](C)[O-] (centres unmarked) [1-041]
Activity against PHBPU (Pharbitis purpureum): 80%
Activity against POLCO (Polygonum convolvulus [8]): 80%

CCc1ccc(C(=O)Nc2nnnn2C)c(CC)c1S(C)(=O)=O [1-042]
Activity against PHBPU (Pharbitis purpureum): 100%
Activity against POLCO (Polygonum convolvulus [8]): 100%

Cc1c(C(=O)Nc2nnnn2C)cccc1S(C)(=O)=O [4-080]
Activity against SETVI (Setaria viridis [1]; dosage 80 g/ha): 20%
Activity against STEME (Stellaria media [2]; dosage 80 g/ha): 50%

CCc1c(C(=O)Nc2nnnn2C)ccc(Cl)c1S(C)(=O)=O [4-192, reference compound]
Activity against PHBPU (Pharbitis purpureum): 80%
Activity against POLCO (Polygonum convolvulus [8]): 60%

COc1ccc(C(=O)Nc2nnnn2C)c(C)c1S(C)(=O)=O [4-439]
Activity against PHBPU (Pharbitis purpureum): 60%
Activity against SETVI (Setaria viridis [1]; dosage 80 g/ha): 0%
Activity against STEME (Stellaria media [2]; dosage 80 g/ha): 70%
Activity against AVEFA (Avena fatua [7]): 50%

CCc1c(C(=O)Nc2nnnn2C)ccc(Br)c1SOC [4-503, reference compound]
Activity against PHBPU (Pharbitis purpureum): 50%
Activity against POLCO (Polygonum convolvulus [8]): 60%

Cc1ccc(C(=O)Nc2nnnn2C)c(I)c1S(C)(=O)=O [4-791]
Activity against PHBPU (Pharbitis purpureum): 30%
Activity against AVEFA (Avena fatua [7]): 0%

CCS(=O)(=O)c1c(C)ccc(C(=O)Nc2nnnn2C)c1I [4-794]
Activity against PHBPU (Pharbitis purpureum): 60%
Activity against AVEFA (Avena fatua [7]): 10%

COSc1c(C)ccc(C(=O)Nc2nnnn2C)c1[N+](=O)[O-] [4-796]
Activity against SETVI (Setaria viridis [1]; dosage 320 g/ha): 0%
Activity against STEME (Stellaria media [2]; dosage 320 g/ha): 50%

Cc1ccc(C(=O)Nc2nnnn2C)c([N+](=O)[O-])c1S(C)(=O)=O [4-797]
Activity against PHBPU (Pharbitis purpureum): 0%
Activity against AVEFA (Avena fatua [7]): 0%
